For twelve molecules, TGI and GI50 results are on record in PubChem BioAssay (NCI).

Test systems include CAKI-1 renal; NCI-H522 lung; NCI-H460 lung; IGROV1 ovarian; SW-620 colon; UO-31 renal; MDA-MB-435; HT29 colon; MDA-MB-231 breast; LOX IMVI melanoma; OVCAR-4 ovarian; M14 melanoma; HCT-116 colon; 786-0 renal.
What all share (test): NCI anticancer screen, dose series, 48 h

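Growth conditions: 96-well plates. Treatment: test compound, 48 hours, 5 concentrations. Analysis: linear interpolation between bracketing concentrations; unreached endpoints set to highest concentration. Here, GI50 denotes the concentration required for 50% inhibition of growth. TGI marks complete inhibition of growth.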

Take `O=C(O)C(O)Cc1ccccn1` (stereo not drawn): the TGI in the test with CAKI-1 renal, in the test with NCI-H522 lung, with NCI-H460 lung, in the test on IGROV1 ovarian, in the test with SW-620 colon and with UO-31 renal was > 100 µM in each case. The TGI in the test with MDA-MB-435, with HT29 colon, with MDA-MB-231 breast, in the test with LOX IMVI melanoma, with OVCAR-4 ovarian and in the test with M14 melanoma was > 100 µM in each case.
Take `COc1ccc(C2C(=O)C(Cl)N2Nc2nc(C)cc(=O)[nH]2)cc1OC` (stereo not drawn): the TGI with NCI-H460 lung is > 100 µM; in the test on IGROV1 ovarian, 70.2 µM; in the test with SW-620 colon, > 100 µM; with UO-31 renal it was > 100 µM; with HT29 colon, > 100 µM; in the test with LOX IMVI melanoma, > 100 µM. For the same molecule, the TGI in the test on HCT-116 colon, in the test on OVCAR-4 ovarian and in the test on M14 melanoma was > 100 µM each time.
`O=C(O)CSCC(=O)O`: the TGI with CAKI-1 renal, in the test on NCI-H522 lung, in the test with 786-0 renal, in the test on NCI-H460 lung, with IGROV1 ovarian and in the test with SW-620 colon was > 100 µM each time. Also, the TGI in the test with UO-31 renal, in the test on MDA-MB-435, with HT29 colon, with MDA-MB-231 breast, in the test on LOX IMVI melanoma and in the test on HCT-116 colon was > 100 µM throughout. The TGI in the test with OVCAR-4 ovarian and in the test on M14 melanoma was > 100 µM each time.
With `Nc1ccc2nc3ccc(N)cc3[n+](-c3ccccc3)c2c1`, the TGI in the test on CAKI-1 renal, with NCI-H522 lung, in the test with 786-0 renal, in the test with NCI-H460 lung, with IGROV1 ovarian and in the test on SW-620 colon was > 100 µM each time. The TGI in the test on UO-31 renal was > 100 µM; in the test with MDA-MB-435, > 100 µM; in the test with HT29 colon, > 100 µM; with MDA-MB-231 breast, > 100 µM; with LOX IMVI melanoma it was 75.9 µM; in the test on HCT-116 colon, 97.3 µM. Further, the TGI with OVCAR-4 ovarian and in the test with M14 melanoma was > 100 µM in each case.
With `c1ccc(C(c2ccccc2)[P+](c2ccccc2)(c2ccccc2)c2ccccc2)cc1`, the TGI in the test with CAKI-1 renal was determined as 8.47 µM; in the test with NCI-H522 lung it was 1.14 µM; in the test on NCI-H460 lung, 11.5 µM; with IGROV1 ovarian it was 8.64 µM; with SW-620 colon it was 13.2 µM; in the test on UO-31 renal it was 7.95 µM. Also, the TGI was 6.73 µM in the test on HT29 colon, 1.52 µM in the test with LOX IMVI melanoma, 5.02 µM with HCT-116 colon and 10 µM in the test with OVCAR-4 ovarian.
On to `Nc1ccc(C2NC(=O)Cc3c2ccc2ccccc32)cc1` (stereo not drawn), for which the TGI with CAKI-1 renal, in the test on NCI-H522 lung, with NCI-H460 lung, with IGROV1 ovarian, in the test on SW-620 colon and in the test on UO-31 renal was > 100 µM throughout. Besides, the TGI with MDA-MB-435, in the test on HT29 colon, with LOX IMVI melanoma, with HCT-116 colon, in the test on OVCAR-4 ovarian and with M14 melanoma was > 100 µM in each case.
On to `C=C[C@H]1CC[C@H]2[C@@H]3CC=C4C[C@@H](OC5OCC(O)C(O)C5O)CC[C@]4(C)[C@H]3CC[C@]12C` (stereo partly drawn), for which the TGI came out at 23.8 µM with CAKI-1 renal; 25.9 µM in the test with NCI-H522 lung; 34.1 µM in the test on 786-0 renal; 28.4 µM in the test with NCI-H460 lung; 45.2 µM in the test on IGROV1 ovarian; 40.2 µM with SW-620 colon. Besides, the TGI came out at 30 µM with UO-31 renal; 47.8 µM in the test with MDA-MB-435; 61.3 µM in the test on HT29 colon; 39.6 µM with MDA-MB-231 breast; 26.7 µM with LOX IMVI melanoma; 28.4 µM in the test on HCT-116 colon. The same molecule returned a TGI in the test on M14 melanoma of 40.9 µM.
Regarding `COc1ccccc1N1C(Cl)C(=O)C1c1c[nH]c2ccccc12` (stereo not drawn), the TGI in the test with NCI-H522 lung, with NCI-H460 lung, in the test on IGROV1 ovarian, with SW-620 colon, with UO-31 renal and with HT29 colon was > 100 µM throughout. The TGI in the test on HCT-116 colon, in the test on OVCAR-4 ovarian and with M14 melanoma was > 100 µM throughout.
On to `CCCCCCCCCCCCCCCC[N+](C)(C)CCN(Cc1ccc(OC)cc1)c1ncccn1`, for which the GI50 in the test with CAKI-1 renal is 8.14 µM; in the test with UO-31 renal it was 5.65 µM; in the test on MDA-MB-231 breast, 2 µM; in the test with LOX IMVI melanoma, 1.17 µM; with OVCAR-4 ovarian, 1.85 µM. Moreover, the TGI in the test with CAKI-1 renal came out at 34 µM; with UO-31 renal, 52.9 µM; in the test on MDA-MB-231 breast, 4.94 µM; with LOX IMVI melanoma it was 3.33 µM; in the test with OVCAR-4 ovarian, 4.88 µM.
For the molecule `FC(F)(F)C(C1=NC(C(F)(F)F)(C(F)(F)F)N=C(N2CCOCC2)O1)C(F)(F)F`, the TGI is 61.6 µM with CAKI-1 renal; 46.2 µM in the test on NCI-H522 lung; > 100 µM in the test with NCI-H460 lung; 57.1 µM in the test with IGROV1 ovarian; 41.9 µM in the test with SW-620 colon; > 100 µM with UO-31 renal. The TGI in the test on MDA-MB-435 was 59.3 µM; in the test on HT29 colon, 57.8 µM; in the test with MDA-MB-231 breast it was 36.1 µM; in the test with LOX IMVI melanoma it was 63.8 µM; in the test with HCT-116 colon, > 100 µM; in the test on OVCAR-4 ovarian, 66.1 µM. For the same molecule, in the test on M14 melanoma, the TGI came to 60.5 µM.
For the molecule `COc1cc(-c2c(C#N)c(N)c(C#N)c3c2COc2ccccc2-3)cc(OC)c1OC`, the TGI in the test on CAKI-1 renal is > 100 µM; with NCI-H522 lung, > 100 µM; with NCI-H460 lung, > 100 µM; with IGROV1 ovarian, > 79.6 µM; with SW-620 colon, > 100 µM; with UO-31 renal, > 69.8 µM. In addition, the TGI in the test on MDA-MB-435 was > 100 µM; with HT29 colon, > 100 µM; with MDA-MB-231 breast it was 40.2 µM; in the test on LOX IMVI melanoma, > 100 µM; in the test on HCT-116 colon, > 100 µM; in the test with OVCAR-4 ovarian, > 64.8 µM. Besides, in the test on M14 melanoma, the TGI was > 100 µM.
With `Cc1nc(Nc2ccc(F)cc2)c2sc(=S)n(-c3ccc(F)cc3)c2n1`, the TGI in the test with CAKI-1 renal came to 35.5 µM; with NCI-H522 lung it was 30.1 µM; with 786-0 renal, 21.6 µM; with NCI-H460 lung, 28.8 µM; with IGROV1 ovarian it was 22.4 µM; in the test with SW-620 colon, 21.4 µM. Further, the TGI in the test on UO-31 renal stood at 30.1 µM; in the test with MDA-MB-435 it was 22.7 µM; with HT29 colon, 19.9 µM; in the test on MDA-MB-231 breast it was 26.9 µM; in the test with LOX IMVI melanoma it was 17 µM; in the test with HCT-116 colon it was 15 µM. Further, the TGI in the test with OVCAR-4 ovarian amounted to 40.8 µM; with M14 melanoma, 15.5 µM.
